System: parental HEK293 cells
Test: [Ca2+]i response in un-transfected parental HEK293 cells
Assay type: cell-based, human
Experimental: All fluorometric Ca^2+ assays were done in (4-(2-hydroxyethyl)-1-piperazineethanesulfonic acid) (HEPES)-buffered saline (HBS), containing 132 mM NaCl, 6 mM KCl, 1 mM MgCl2, 1 mM CaCl2, 5.5 mM D-glucose, 10 mM HEPES, and 0.035% bovine serum albumin (BSA) adjusted to pH 7.4 with NaOH. For measurements in Ca^2+-free bath solutions, a modified HBS without CaCl2 was supplemented with 200 µM ethylene glycol-bis(β-aminoethyl ether)-N,N,N′,N′-tetraacetic acid (EGTA).
The primary compound screen and the generation of concentration response curves in HEK293 cells or in PC12 cells were performed by using a custom-made fluorescence plate imager built into a robotic liquid handling station equipped with a 96-tip multichannel head (Freedom Evo 150, Tecan, Männedorf, Switzerland) as described previously. To this end, trypsinized cell suspensions were loaded with 4 µM fluo-4/AM (Invitrogen, Thermo Fisher Scientific, Waltham, MA, U.S.A.) in cell culture medium for 30 min at 37 °C. After brief centrifugation, cells were resuspended in HBS and dispensed into black pigmented, clear-bottom 384-well plates (Greiner µClear, Frickenhausen, Germany). Plates were mounted on the imager, and fluorescence signals were recorded with a cooled Zyla 5.5 camera (Andor, Belfast, UK) through a 515 nm long pass filter. The image acquisition was controlled by the µManager software (http://micro-manager.org), and excitation with a LED array (470 nm) was synchronized by the camera trigger output. After baseline recording for about 60 s, the compound libraries or serial dilutions of activators or inhibitors were added to the cells by the liquid handling device. When inhibitory potencies were evaluated, a second pipetting step with the respective reference agonist was performed. Fluorescence intensities were calculated from image stacks for each well with ImageJ (National Institutes of Health, Bethesda, MD, U.S.A.), corrected for background signals, and normalized to the initial intensities (F/F0). […]

## C[C@@H]1CC[C@H]2[C@@H](C)C(=O)O[C@@H]3O[C@@]4(C)CC[C@@H]1[C@]32OO4 [artemisinin]
Concentrations up to 50 µM
  response of un-transfected parental HEK293 cells: no response
single-cell analysis, followed by carbachol
  [Ca2+]i signals in parental HEK293 cells: does not induce [Ca^2+]i signals
